The values below come from patent US20260345555A1, “Compositions and Methods for Protecting Salivary Glands from Off-Target Radiation Damage” (University of Rochester, priority 2022, published 2026).

Counter-ions that a name gives are not always drawn.

The first test deals with Reduced glutathione in salivary gland cell clusters (SGm). Nature of the test: Glutathione assay in salivary gland tissue chip, 4 days post-radiation (15 Gy); also first screen of Selleck library at 100 μM. The class given is cell-based, mouse.
Conditions: not given
An excerpt: A salivary gland tissue chip was leveraged for high-content drug screening to identify novel radioprotective compounds (Song Y et al., Commun Biol., 2021, 4). The chip platform consists of an array of near-spherical microbubble (MB) cavities formed in poly(dimethylsiloxane) (PDMS). Each chip, containing ~50 MBs, affixed within wells of a 96-well plate (FIG. 1C). Primary salivary gland cell clusters (FIG. 1A), suspended in a poly(ethylene glycol) (PEG) hydrogel precursor and MMP-degradable peptide crosslinker solution together with the photoinitiator LAP, were applied to the chip allowing the clusters to deposit into the MBs (FIG. 1D). In situ polymerization of the hydrogel was achieved using long-wave, low intensity UV light. Over time, the cell clusters aggregate and proliferate to form SGm (FIG. 1C).
The glutathione assay was used to measure glutathione levels at various time points post-radiation to determine the optimal time point for detecting differences between 0 Gy and 15 Gy. Based on the data, the greatest signal separation was measured at 4 days post-irradiation (FIG. 9). This timepoint is similar to previous reports on decreases in glutathione post-radiation and was used for all experiments moving forward (Meeks L et al., Physiological Genomics, 2021, 53: 85-98).
The dose response to WR-1065 was examined to determine effective concentrations of WR-1065 to prevent the reduction of glutathione levels post-radiation. A SGm tissue chip was cultured for 4 days to allow spheres to form. The chip was then treated with WR-1065 30 minutes before and during radiation, followed by drug wash out with media 30 minutes post-radiation (FIG. 2A). This dosing scheme is consistent with the use of Amifostine clinically and with previous work. The glutathione assay was performed at 4 days post-radiation (FIG. 2A). […] Moreover, it is clinically relevant as 15-30 minutes before radiation, patients are administered Amifostine intravenously at 200 mg/m (Escobar A et al., IntechOpen, 2019, pp. 15-37; Eisbruch A, J Clin Oncol, 2011, 29: 119-121; Bardet, E. et al. Semin Oncol, 2002, 29, 57-60). Assuming an average adult body surface area of 17,000 cm^2 and a blood volume of 1.35 gallons (5.1 liters), Amifostine is administered at 300 μM (Mosteller, R. D. N Engl J Med 317, 1098 (1987)).
The glutathione and senescence assays were used to screen a library of FDA-approved drugs (Selleck Chemicals) at 100 μM. Drugs were first screened using the glutathione assay according to the timeline depicted in FIG. 2A. Any compound resulting in statistically similar glutathione levels compared to 0 Gy control was considered a hit (FIG. 4, grey circles). Hits with the glutathione assay were then tested with the senescence assay and considered a “double hit” if senescence levels were statistically similar to levels at 0 Gy (FIG. 4, black circles). […] While this hit rate is higher than many other drug screening reports (0.1-0.3%), this may be due to the statistical rigor afforded by the tissue chip format (Blanchard, C et al., Antimicrob Agents Chemother 2016, 60, 862-872; Colquhoun, J. M et al., Antibiotics (Basel) 2019, 8, 48). Additionally, phenotypic screens generally have higher hit rates than target-based screens (>1%) (Moffat, J. G et al., Nature Reviews Drug Discovery 2017, 16, 531-543; Rottman, M et al., Science 2010, 329, 1175-1180).
Mice were euthanized and the submandibular glands (SMG) were removed and chopped with a razor blade for 5 min. The tissue was then incubated in Hank's buffered salt solution (HBSS) containing 15 mM HEPES, 50 U/mL collagenase type II (Thermo Fischer 17101015), and 100 U/mL hyaluronidase (Sigma Aldrich H3506) at 37 °C for 30 min. Cells were centrifuged, then resuspended in HBSS with 15 mM HEPES and passed through 100 μm and 20 μm mesh filters to isolate clusters between 20-100 μm. The digestion protocol produces cell cluster sizes evenly distributed between 20 to 100 μm (Song, Y et al., Advanced Healthcare Materials). […]
Consider `CC(=O)Oc1ccccc1C(=O)Nc1ncc([N+](=O)[O-])s1` [Nitazoxanide (Alinia, Annita)], for which the “Glutathione: Normalized mean intensity” value is 0.5996.

`Cc1c(OCC(F)(F)F)ccnc1C[S+]([O-])c1nc2ccccc2[nH]1` (stereo not shown) [Lansoprazole]: the “Glutathione: Normalized mean intensity” value was found to be 0.6174.

The same test, now with this note: first screen of Selleck library at 100 μM, 15 Gy, 4 days post-radiation.
For `CCOC(=O)[C@H](CCc1ccccc1)N[C@@H](C)C(=O)N1[C@H](C(=O)O)C[C@@H]2CCC[C@@H]21` [Ramipril (Altace)], the “Glutathione normalized mean intensity” value was determined as 0.7145.

Take `C[C@@H]1CN(c2c(F)c(N)c3c(=O)c(C(=O)O)cn(C4CC4)c3c2F)C[C@H](C)N1` [Sparfloxacin]: the “Glutathione normalized mean intensity” value turned out to be 0.7607.

For `COc1ccc(CC2c3cc(OC)c(OC)cc3CC[N+]2(C)CCC(=O)OCCCCCOC(=O)CC[N+]2(C)CCc3cc(OC)c(OC)cc3C2Cc2ccc(OC)c(OC)c2)cc1OC` (stereo not shown) [Atracurium besylate], the “Glutathione normalized mean intensity” value amounted to 0.6611.

As for `O=c1[nH]c(=O)n([C@H]2C[C@H](O)[C@@H](CO)O2)cc1C(F)(F)F` [Trifluridine (Viroptic)], the “Glutathione normalized mean intensity” value is on record as 0.7468.

On to `[I-].[K+]` [Potassium iodide], for which the “Glutathione normalized mean intensity” value is on record as 0.386.

On to `CC(=O)OCC(=O)[C@@]12N=C(C)O[C@@H]1C[C@H]1[C@@H]3CCC4=CC(=O)C=C[C@]4(C)[C@H]3[C@@H](O)C[C@@]12C` [Deflazacort (Calcort)], for which the “Glutathione normalized mean intensity” value was 0.5114.

As to `CN(C)C(=N)N=C(N)N` [Metformin hydrochloride (Glucophage)], the “Glutathione normalized mean intensity” value is listed as 0.6991.

For the molecule `NC(=O)NO` [Hydroxyurea (Cytodrox)], the “Glutathione normalized mean intensity” value is 0.4236.

Turning to `CC1(C)[C@H](C(=O)O)N2C(=O)C[C@H]2S1(=O)=O` [Sulbactam], the “Glutathione normalized mean intensity” value came to 0.6491.

With `CC(C)[C@H](N)C(=O)OCCOCn1cnc2c(=O)[nH]c(N)nc21` [Valaciclovir HCl], the “Glutathione normalized mean intensity” value was found to be 0.6362.

Consider `COCCc1ccc(OCC(O)CNC(C)C)cc1` (stereo not shown) [Metoprolol tartrate], for which the “Glutathione normalized mean intensity” value is given as 0.829.

As to `CCc1cc(C(N)=S)ccn1` [Ethionamide], the “Glutathione normalized mean intensity” value was 0.7451.

Turning to `CN=C(NC#N)NCCSCc1nc[nH]c1C` [Cimetidine (Tagamet)], the “Glutathione normalized mean intensity” value is 0.9597.

Take `Nc1ncn([C@@H]2O[C@H](CO)[C@@H](O)[C@H]2O)c(=O)n1` [Azacitidine (Vidaza)]: the “Glutathione normalized mean intensity” value was 0.5322.

Take `O=C(O)Cc1ccccc1Nc1c(Cl)cccc1Cl` [Diclofenac]: the “Glutathione normalized mean intensity” value is on record as 0.334.

`COc1ccc([C@@H]2Sc3ccccc3N(CCN(C)C)C(=O)[C@@H]2OC(C)=O)cc1` [Diltiazem HCL (Tiazac)]: the “Glutathione normalized mean intensity” value was 0.7425.

As to `CC(C)(S)[C@@H](N)C(=O)O` [Penicillamine (Cuprimine)], the “Glutathione normalized mean intensity” value stood at 0.7681.

With `CCCc1cc(C(N)=S)ccn1` [Protionamide (Prothionamide)], the “Glutathione normalized mean intensity” value was 0.6328.

In the case of Vitamin B12, the “Glutathione normalized mean intensity” value is reported as 0.7029.

Regarding `CN(C)c1ccc(C(=C2C=CC(=[N+](C)C)C=C2)c2ccc(N(C)C)cc2)cc1` [Crystal violet], the “Glutathione normalized mean intensity” value is 0.1262.

In the case of `Cc1nnc(NS(=O)(=O)c2ccc(N)cc2)s1` [Sulfamethizole (Proklar)], the “Glutathione normalized mean intensity” value is 0.4719.

As to `CC(C(=O)O)c1ccc2c(c1)Cc1cccnc1O2` (stereo not shown) [Pranoprofen], the “Glutathione normalized mean intensity” value is on record as 0.7582.

Take `CCC(C)(C)C(=O)O[C@H]1C[C@@H](C)C=C2C=C[C@H](C)[C@H](CC[C@@H]3C[C@@H](O)CC(=O)O3)[C@H]21` [Simvastatin (Zocor)]: the “Glutathione normalized mean intensity” value is 0.1568.

As to `Clc1ccc(C(Cn2ccnc2)OCc2ccsc2Cl)c(Cl)c1` (stereo not shown) [Tioconazole], the “Glutathione normalized mean intensity” value was found to be 0.6333.

As for `NC(=O)c1ncn([C@@H]2O[C@H](CO)[C@@H](O)[C@H]2O)c1N` [Acadesine], the “Glutathione normalized mean intensity” value amounted to 0.3637.

As for `CN1[C@@H]2CC[C@H]1C[C@@H](OC(=O)c1c[nH]c3ccccc13)C2` [Tropisetron], the “Glutathione normalized mean intensity” value is on record as 0.5993.

Regarding `COC(=O)Nc1nc2ccc([S+]([O-])c3ccccc3)cc2[nH]1` (stereo not shown) [Oxfendazole], the “Glutathione normalized mean intensity” value stood at 0.6.

On to `O=P(O)(O)C(O)(Cc1cccnc1)P(=O)(O)O` [Risedronic acid (Actonel)], for which the “Glutathione normalized mean intensity” value came out at 0.6565.

In the case of `Cc1ncc([N+](=O)[O-])n1CCO` [Metronidazole (Flagyl)], the “Glutathione normalized mean intensity” value is given as 0.5627.

Turning to `Oc1c(Cl)cc(Cl)c2cccnc12` [Chloroxine], the “Glutathione normalized mean intensity” value was found to be 0.1604.

As for `O=c1[nH]c(=O)n([C@H]2C[C@H](O)[C@@H](CO)O2)cc1I` [Idoxuridine], the “Glutathione normalized mean intensity” value is 0.7701.

For the molecule `NCC1CCC(C(=O)O)CC1` (stereo not shown) [Tranexamic acid (Transamin)], the “Glutathione normalized mean intensity” value was 0.7568.

As to `COc1cc(NS(=O)(=O)c2ccc(N)cc2)nc(OC)n1` [Sulphadimethoxine], the “Glutathione normalized mean intensity” value is 0.8846.

`CC(=O)OCC(=O)NCCCOc1cccc(CN2CCCCC2)c1` [Roxatidine acetate HCl]: the “Glutathione normalized mean intensity” value was 0.4245.

Consider `COc1ccc(C(=O)CC(=O)c2ccc(C(C)(C)C)cc2)cc1` [Avobenzone (Parsol 1789)], for which the “Glutathione normalized mean intensity” value was 0.5309.

As to `C[C@@](Cc1ccc(O)c(O)c1)(NN)C(=O)O` [Carbidopa], the “Glutathione normalized mean intensity” value stood at 0.5325.

With `c1ccc([C@H]2CN3CCSC3=N2)cc1` [Levamisole Hydrochloride (Ergamisol)], the “Glutathione normalized mean intensity” value is on record as 0.8181.

Take `Clc1ccc(CCC(Cn2ccnc2)Sc2c(Cl)cccc2Cl)cc1` (stereo not shown) [Butoconazole nitrate]: the “Glutathione normalized mean intensity” value turned out to be 0.6197.

For the molecule `CC(C)C(=O)Nc1ccc([N+](=O)[O-])c(C(F)(F)F)c1` [Flutamide (Eulexin)], the “Glutathione normalized mean intensity” value is on record as 0.6406.

On to `CC[C@H]1OC(=O)[C@H](C)[C@@H](O[C@H]2C[C@@](C)(OC)[C@@H](O)[C@H](C)O2)[C@H](C)[C@@H](O[C@@H]2O[C@H](C)C[C@H](N(C)C)[C@H]2O)[C@](C)(O)C[C@@H](C)CN(C)[C@H](C)[C@@H](O)[C@]1(C)O` [Azithromycin (Zithromax)], for which the “Glutathione normalized mean intensity” value is listed as 0.8765.

`CC(N)C12CC3CC(CC(C3)C1)C2` (stereo not shown) [Rimantadine (Flumadine)]: the “Glutathione normalized mean intensity” value amounted to 0.3987.

Consider `O=C(O)CSCC(=O)NC1CCSC1=O` (stereo not shown) [Erdosteine], for which the “Glutathione normalized mean intensity” value is 0.5728.

For the molecule `CC(C)n1c(/C=C/[C@H](O)C[C@H](O)CC(=O)O)c(-c2ccc(F)cc2)c2ccccc21` (racemic) [Fluvastatin sodium (Lescol)], the “Glutathione normalized mean intensity” value stood at 0.5791.

As to `CN(C)[C@@H](CCOc1cccc2ccccc12)c1ccccc1` [Dapoxetine hydrochloride (Priligy)], the “Glutathione normalized mean intensity” value was 0.7539.

Take `O=c1c(-c2ccc(O)cc2)coc2cc(O)ccc12` [Daidzein]: the “Glutathione normalized mean intensity” value was determined as 0.5394.

In the case of `Nc1nc(O)c2ncn(COC(CO)CO)c2n1` [Ganciclovir], the “Glutathione normalized mean intensity” value worked out at 0.5803.

In the case of `C[C@H]1COc2c(N3CCN(C)CC3)c(F)cc3c(=O)c(C(=O)O)cn1c23` [Levofloxacin (Levaquin)], the “Glutathione normalized mean intensity” value is given as 0.6541.
